Measured values as given in the supplement of paper PMC10307832.

Key:
Assay in all cases: relative viability (nuclei count vs DMSO), 5 days (fraction); higher = more cells survive
RAF265 + Luminespib = compound: Cn1c(Nc2ccc(C(F)(F)F)cc2)nc2cc(Oc3ccnc(-c4ncc(C(F)(F)F)[nH]4)c3)ccc21 [RAF265] + CCNC(=O)c1noc(-c2cc(C(C)C)c(O)cc2O)c1-c1ccc(CN2CCOCC2)cc1 [Luminespib] (partner 0.01 µM)
In short: (§1)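 One day after seeding in 1536-well plates, lung cancer cell lines were dosed by pin tool. Dosing was either single-drug or a fixed anchor-drug dose plus five library-drug doses (not always all listed) in √10 steps. After 5 days, nuclei were stained in one fix-and-stain step and counted on 4× images, and relative viability is the nuclei count of treated wells over that of vehicle wells, given as the median of duplicate plates.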

RAF265 + Crizotinib = compound: Cn1c(Nc2ccc(C(F)(F)F)cc2)nc2cc(Oc3ccnc(-c4ncc(C(F)(F)F)[nH]4)c3)ccc21 [RAF265] + C[C@@H](Oc1cc(-c2cnn(C3CCNCC3)c2)cnc1N)c1c(Cl)ccc(F)c1Cl [Crizotinib] (partner 1 µM)
In short: as §1

Doramapimod + Crizotinib = compound: Cc1ccc(-n2nc(C(C)(C)C)cc2NC(=O)Nc2ccc(OCCN3CCOCC3)c3ccccc23)cc1 [Doramapimod] + C[C@@H](Oc1cc(-c2cnn(C3CCNCC3)c2)cnc1N)c1c(Cl)ccc(F)c1Cl [Crizotinib] (partner 1 µM)
In short: as §1

RAF265 + Pemetrexed = compound: Cn1c(Nc2ccc(C(F)(F)F)cc2)nc2cc(Oc3ccnc(-c4ncc(C(F)(F)F)[nH]4)c3)ccc21 [RAF265] + Nc1nc2[nH]cc(CCc3ccc(C(=O)N[C@@H](CCC(=O)O)C(=O)O)cc3)c2c(=O)[nH]1 [Pemetrexed] (partner 0.2 µM)
In short: as §1

## 201T
RAF265 + Luminespib; first compound 0.01 µM
  relative viability: 1.07
RAF265 + Luminespib; first compound 0.03162 µM
  relative viability: 0.972
RAF265 + Luminespib; first compound 0.1 µM
  relative viability: 1.03
RAF265 + Luminespib; first compound 0.3162 µM
  relative viability: 0.995
RAF265 + Luminespib; first compound 1 µM
  relative viability: 0.997
RAF265 + Crizotinib; first compound 0.01 µM
  relative viability: 1.08
RAF265 + Crizotinib; first compound 0.03162 µM
  relative viability: 0.996
RAF265 + Crizotinib; first compound 0.1 µM
  relative viability: 1.05
RAF265 + Crizotinib; first compound 0.3162 µM
  relative viability: 1.06
RAF265 + Crizotinib; first compound 1 µM
  relative viability: 1.08
Doramapimod + Crizotinib; first compound 0.02 µM
  relative viability: 1.03
Doramapimod + Crizotinib; first compound 0.06325 µM
  relative viability: 1.06
Doramapimod + Crizotinib; first compound 0.2 µM
  relative viability: 0.993
Doramapimod + Crizotinib; first compound 0.6325 µM
  relative viability: 1.09
Doramapimod + Crizotinib; first compound 2 µM
  relative viability: 1.01
RAF265 + Pemetrexed; first compound 0.01 µM
  relative viability: 0.352
RAF265 + Pemetrexed; first compound 0.03162 µM
  relative viability: 0.316
RAF265 + Pemetrexed; first compound 0.1 µM
  relative viability: 0.344
RAF265 + Pemetrexed; first compound 0.3162 µM
  relative viability: 0.311
RAF265 + Pemetrexed; first compound 1 µM
  relative viability: 0.313

## A549
RAF265 + Crizotinib; first compound 0.01 µM
  relative viability: 0.72
RAF265 + Crizotinib; first compound 0.03162 µM
  relative viability: 0.656
RAF265 + Crizotinib; first compound 0.1 µM
  relative viability: 0.677
RAF265 + Crizotinib; first compound 0.3162 µM
  relative viability: 0.511
RAF265 + Crizotinib; first compound 1 µM
  relative viability: 0.36
Doramapimod + Crizotinib; first compound 0.02 µM
  relative viability: 0.763
Doramapimod + Crizotinib; first compound 0.06325 µM
  relative viability: 0.747
Doramapimod + Crizotinib; first compound 0.2 µM
  relative viability: 0.771
Doramapimod + Crizotinib; first compound 0.6325 µM
  relative viability: 0.743
Doramapimod + Crizotinib; first compound 2 µM
  relative viability: 0.762

## A-427
RAF265 + Luminespib; first compound 0.01 µM
  relative viability: 0.691
RAF265 + Luminespib; first compound 0.03162 µM
  relative viability: 0.821
RAF265 + Luminespib; first compound 0.1 µM
  relative viability: 1.16
RAF265 + Luminespib; first compound 0.3162 µM
  relative viability: 0.631
RAF265 + Luminespib; first compound 1 µM
  relative viability: 0.226
RAF265 + Crizotinib; first compound 0.01 µM
  relative viability: 0.882
RAF265 + Crizotinib; first compound 0.03162 µM
  relative viability: 0.639
RAF265 + Crizotinib; first compound 0.1 µM
  relative viability: 0.927
RAF265 + Crizotinib; first compound 0.3162 µM
  relative viability: 0.644
RAF265 + Crizotinib; first compound 1 µM
  relative viability: 0.159
Doramapimod + Crizotinib; first compound 0.02 µM
  relative viability: 0.927
Doramapimod + Crizotinib; first compound 0.06325 µM
  relative viability: 0.933
Doramapimod + Crizotinib; first compound 0.2 µM
  relative viability: 0.98
Doramapimod + Crizotinib; first compound 2 µM
  relative viability: 0.932
RAF265 + Pemetrexed; first compound 0.01 µM
  relative viability: 1.06
RAF265 + Pemetrexed; first compound 0.03162 µM
  relative viability: 0.939
RAF265 + Pemetrexed; first compound 0.1 µM
  relative viability: 1.03
RAF265 + Pemetrexed; first compound 0.3162 µM
  relative viability: 0.678
RAF265 + Pemetrexed; first compound 1 µM
  relative viability: 0.468

## ABC-1
RAF265 + Luminespib; first compound 0.01 µM
  relative viability: 0.656
RAF265 + Luminespib; first compound 0.03162 µM
  relative viability: 0.823
RAF265 + Luminespib; first compound 0.1 µM
  relative viability: 0.75
RAF265 + Luminespib; first compound 0.3162 µM
  relative viability: 0.519
RAF265 + Luminespib; first compound 1 µM
  relative viability: 0.265
RAF265 + Crizotinib; first compound 0.01 µM
  relative viability: 1.17
RAF265 + Crizotinib; first compound 0.03162 µM
  relative viability: 0.864
RAF265 + Crizotinib; first compound 0.1 µM
  relative viability: 1.37
RAF265 + Crizotinib; first compound 0.3162 µM
  relative viability: 0.851
RAF265 + Crizotinib; first compound 1 µM
  relative viability: 0.464
Doramapimod + Crizotinib; first compound 0.02 µM
  relative viability: 1.03
Doramapimod + Crizotinib; first compound 0.06325 µM
  relative viability: 1.09
Doramapimod + Crizotinib; first compound 0.2 µM
  relative viability: 0.842
Doramapimod + Crizotinib; first compound 0.6325 µM
  relative viability: 0.75
Doramapimod + Crizotinib; first compound 2 µM
  relative viability: 1.29

## BEN
RAF265 + Luminespib; first compound 0.01 µM
  relative viability: 0.402
RAF265 + Luminespib; first compound 0.03162 µM
  relative viability: 0.491
RAF265 + Luminespib; first compound 0.1 µM
  relative viability: 0.534
RAF265 + Luminespib; first compound 0.3162 µM
  relative viability: 0.224
RAF265 + Luminespib; first compound 1 µM
  relative viability: 0.325
RAF265 + Crizotinib; first compound 0.01 µM
  relative viability: 0.955
RAF265 + Crizotinib; first compound 0.03162 µM
  relative viability: 0.911
RAF265 + Crizotinib; first compound 0.1 µM
  relative viability: 0.961
RAF265 + Crizotinib; first compound 0.3162 µM
  relative viability: 1.07
RAF265 + Crizotinib; first compound 1 µM
  relative viability: 0.821
Doramapimod + Crizotinib; first compound 0.02 µM
  relative viability: 0.855
Doramapimod + Crizotinib; first compound 0.06325 µM
  relative viability: 0.683
Doramapimod + Crizotinib; first compound 0.2 µM
  relative viability: 0.85
Doramapimod + Crizotinib; first compound 0.6325 µM
  relative viability: 0.742
Doramapimod + Crizotinib; first compound 2 µM
  relative viability: 0.761
RAF265 + Pemetrexed; first compound 0.01 µM
  relative viability: 0.795
RAF265 + Pemetrexed; first compound 0.03162 µM
  relative viability: 0.835
RAF265 + Pemetrexed; first compound 0.1 µM
  relative viability: 0.99
RAF265 + Pemetrexed; first compound 0.3162 µM
  relative viability: 0.798
RAF265 + Pemetrexed; first compound 1 µM
  relative viability: 0.692

## CAL-12T
RAF265 + Luminespib; first compound 0.01 µM
  relative viability: 0.238
RAF265 + Luminespib; first compound 0.03162 µM
  relative viability: 0.426
RAF265 + Luminespib; first compound 0.1 µM
  relative viability: 0.341
RAF265 + Luminespib; first compound 0.3162 µM
  relative viability: 0.491
RAF265 + Luminespib; first compound 1 µM
  relative viability: 0.0919
RAF265 + Crizotinib; first compound 0.01 µM
  relative viability: 0.66
RAF265 + Crizotinib; first compound 0.03162 µM
  relative viability: 0.456
RAF265 + Crizotinib; first compound 0.1 µM
  relative viability: 0.638
RAF265 + Crizotinib; first compound 0.3162 µM
  relative viability: 0.441
RAF265 + Crizotinib; first compound 1 µM
  relative viability: 0.298
Doramapimod + Crizotinib; first compound 0.02 µM
  relative viability: 0.687
Doramapimod + Crizotinib; first compound 0.06325 µM
  relative viability: 0.726
Doramapimod + Crizotinib; first compound 0.2 µM
  relative viability: 0.746
Doramapimod + Crizotinib; first compound 0.6325 µM
  relative viability: 0.635
Doramapimod + Crizotinib; first compound 2 µM
  relative viability: 0.727
RAF265 + Pemetrexed; first compound 0.01 µM
  relative viability: 1.21
RAF265 + Pemetrexed; first compound 0.03162 µM
  relative viability: 0.925
RAF265 + Pemetrexed; first compound 0.1 µM
  relative viability: 1.13
RAF265 + Pemetrexed; first compound 0.3162 µM
  relative viability: 0.978
RAF265 + Pemetrexed; first compound 1 µM
  relative viability: 0.661

## COR-L23
RAF265 + Luminespib; first compound 0.01 µM
  relative viability: 0.637
RAF265 + Luminespib; first compound 0.03162 µM
  relative viability: 0.655
RAF265 + Luminespib; first compound 0.1 µM
  relative viability: 0.539
RAF265 + Luminespib; first compound 0.3162 µM
  relative viability: 0.33
RAF265 + Luminespib; first compound 1 µM
  relative viability: 0.324
RAF265 + Crizotinib; first compound 0.01 µM
  relative viability: 0.799
RAF265 + Crizotinib; first compound 0.03162 µM
  relative viability: 0.75
RAF265 + Crizotinib; first compound 0.1 µM
  relative viability: 0.638
RAF265 + Crizotinib; first compound 0.3162 µM
  relative viability: 0.465
RAF265 + Crizotinib; first compound 1 µM
  relative viability: 0.424
Doramapimod + Crizotinib; first compound 0.02 µM
  relative viability: 0.705
Doramapimod + Crizotinib; first compound 0.06325 µM
  relative viability: 0.573
Doramapimod + Crizotinib; first compound 0.2 µM
  relative viability: 0.571
Doramapimod + Crizotinib; first compound 0.6325 µM
  relative viability: 0.651
Doramapimod + Crizotinib; first compound 2 µM
  relative viability: 0.667
RAF265 + Pemetrexed; first compound 0.01 µM
  relative viability: 0.188
RAF265 + Pemetrexed; first compound 0.03162 µM
  relative viability: 0.206
RAF265 + Pemetrexed; first compound 0.1 µM
  relative viability: 0.202
RAF265 + Pemetrexed; first compound 0.3162 µM
  relative viability: 0.182
RAF265 + Pemetrexed; first compound 1 µM
  relative viability: 0.184

## COR-L 105
RAF265 + Luminespib; first compound 0.01 µM
  relative viability: 0.826
RAF265 + Luminespib; first compound 0.03162 µM
  relative viability: 0.821
RAF265 + Luminespib; first compound 0.1 µM
  relative viability: 0.666
RAF265 + Luminespib; first compound 0.3162 µM
  relative viability: 0.766
RAF265 + Luminespib; first compound 1 µM
  relative viability: 0.385
RAF265 + Crizotinib; first compound 0.01 µM
  relative viability: 0.844
RAF265 + Crizotinib; first compound 0.03162 µM
  relative viability: 0.689
RAF265 + Crizotinib; first compound 0.1 µM
  relative viability: 0.755
RAF265 + Crizotinib; first compound 0.3162 µM
  relative viability: 0.503
RAF265 + Crizotinib; first compound 1 µM
  relative viability: 0.297
Doramapimod + Crizotinib; first compound 0.02 µM
  relative viability: 0.849
Doramapimod + Crizotinib; first compound 0.06325 µM
  relative viability: 0.915
Doramapimod + Crizotinib; first compound 0.2 µM
  relative viability: 0.798
Doramapimod + Crizotinib; first compound 0.6325 µM
  relative viability: 0.897
Doramapimod + Crizotinib; first compound 2 µM
  relative viability: 0.75
RAF265 + Pemetrexed; first compound 0.01 µM
  relative viability: 1.27
RAF265 + Pemetrexed; first compound 0.03162 µM
  relative viability: 0.941
RAF265 + Pemetrexed; first compound 0.1 µM
  relative viability: 1.31
RAF265 + Pemetrexed; first compound 0.3162 µM
  relative viability: 0.714
RAF265 + Pemetrexed; first compound 1 µM
  relative viability: 0.685

## Calu-6
RAF265 + Crizotinib; first compound 0.01 µM
  relative viability: 0.73
RAF265 + Crizotinib; first compound 0.03162 µM
  relative viability: 0.709
RAF265 + Crizotinib; first compound 0.1 µM
  relative viability: 0.658
RAF265 + Crizotinib; first compound 0.3162 µM
  relative viability: 0.529
RAF265 + Crizotinib; first compound 1 µM
  relative viability: 0.276
Doramapimod + Crizotinib; first compound 0.02 µM
  relative viability: 0.823
Doramapimod + Crizotinib; first compound 0.06325 µM
  relative viability: 0.815
Doramapimod + Crizotinib; first compound 0.2 µM
  relative viability: 0.865
Doramapimod + Crizotinib; first compound 0.6325 µM
  relative viability: 0.866
Doramapimod + Crizotinib; first compound 2 µM
  relative viability: 0.745
